# Where two headings read alike, the source gives them in different places.
# Legend:
# Format in all cases: cell-based
# [1] = biological target: T1, human Nav1.3 (hSCN3A) (Homo sapiens, UniProt Q9NY46); test: Electrophysiology assay (whole cell patch clamp), human Nav1.3; settings: dissociation constant for the inactivated state, HEK293 cells, read-out: activity (Ki) against Nav1.3
# T1 construct: expressed in transfected cells; host or cells: HEK293 cells
# Procedure: (§1) Electrophysiology Assay for Nays
# (§2) Whole cell patch clamp recording is used to assess the efficacy or selectivity of Na channel blocker on human Nav1.3 (hSCN3A) expressing HEK293 cells or human Nav1.7 (hSCN9A) expressing CHO cells. Human Nav1.3 expressing HEK293 cells are grown in growth media which contain: DMEM, 10% heat-inactivated FBS (Hyclone Laboratories Inc), 100 microgram/mL penicillin/100U/mL streptomycin, 150 microgram/mL Zeocin, and 3 microgram/mL Geneticin. Human Nav1.7 expressing CHO cells are grown in growth media which contain: HAMF-12, 9% heat-inactivated FBS (Hyclone Laboratories Inc), and 100 microgram/mL penicillin/100 U/mL streptomycin, and 100 microgram/mL hygromycin. […]
# (§3) The normalized steady-state inactivation curve is constructed using 2 sec (for vehicle) or 60 sec (for drugs) conditioning pulse to different potentials followed immediately by the test pulse to −10 mV. […] The affinity of drugs to resting state of Na channels (Kresting or Kr) is assessed by 30 msec test pulse from a negative holding potential of -120 or −130 mV, where virtually all channels are in the resting state. Kr value is calculated by a conventional 1:1 binding model: Kresting(Kr)={[drug]Imax,drug/(Imax,control−Imax,drug)} [Math.2] • where Kresting(=Kr) is a dissociation constant for the resting state and [drug] is compound concentration. […]
# [2] = biological target: T2, human Nav1.7 channels (Homo sapiens, UniProt Q15858); test: FRET assay, human Nav1.7 channels
# T2 construct: expressed in transfected cells; host or cells: CHO cells
# Procedure: (§4) The inhibitory activities of compounds against voltage gated sodium channels are determined by methodology well known in the art.
# (§5) The ability of the pyrazolopyridine derivatives of the formula (I) to inhibit the Nav1.3, Nav1.7 and Nav1.5 channels is measured by Fluorescence Resonance Energy Transfer (FRET) assay and electrophysiology assay described below.
# (§6) This screen is used to determine the effects of compounds on human Nav1.3, human Nav1.7, and human Nav1.5 channels, utilising electrical field stimulation (EFS) system in 96-well plate format on FDSS (Hamamatsu Photonics) platform. The change of membrane potential is monitored with FRET dye pair, oxonol (DiSBAC2(3)) and coumarin (CC2-DMPE).
# CHO cells expressing human Nav1.7 channels are grown in T225 flasks, in a 5% CO2 humidified incubator to about 80% confluence. Media composition consists of HAM/F12 with Glutamax I, 10% FCS, 100 units/mL penicillin and 100 microgram/mL hygromycin. […]
# (§7) The data are analyzed and reported as normalized ratios of intensities measured at […]. […]
# (§8) This analysis is performed using a computerized specific program designed for FDSS generated data. Fluorescence ratio values are plotted using XLfit to determine an IC50 value for each compound.
# [3] = biological target: T3, human Nav1.5 channels (Homo sapiens, UniProt Q14524); test: FRET assay, human Nav1.5 channels; settings: read-out: activity against Nav1.5 (IC50)
# T3 construct: expressed in transfected cells; host or cells: HEK293 cells
# Procedure: as §4, §5, §6
# Each HEK293 cells expressing human Nav1.3 channels and HEK293 cells expressing human Nav1.5 channels are grown in T225 flasks, in a 5% CO2 humidified incubator to about 80% confluence. Media composition consists of Dulbecco's Modified Eagle Medium (high glucose), 10% FCS, 100 units/mL penicillin, 100 microgram/mL streptomycin and 500 microgram/mL Geneticine. […]
# as §7, §8
# [4] = biological target: T4, human Nav1.7 (hSCN9A) (Homo sapiens, UniProt Q15858); test: Electrophysiology assay (whole cell patch clamp), human Nav1.7; settings: dissociation constant for the inactivated state, CHO cells, read-out: activity (Ki) against Nav1.7
# T4 construct: expressed in transfected cells; host or cells: CHO cells
# Procedure: as §1, §2, §3
# T2 sequence (Q15858 whole entry): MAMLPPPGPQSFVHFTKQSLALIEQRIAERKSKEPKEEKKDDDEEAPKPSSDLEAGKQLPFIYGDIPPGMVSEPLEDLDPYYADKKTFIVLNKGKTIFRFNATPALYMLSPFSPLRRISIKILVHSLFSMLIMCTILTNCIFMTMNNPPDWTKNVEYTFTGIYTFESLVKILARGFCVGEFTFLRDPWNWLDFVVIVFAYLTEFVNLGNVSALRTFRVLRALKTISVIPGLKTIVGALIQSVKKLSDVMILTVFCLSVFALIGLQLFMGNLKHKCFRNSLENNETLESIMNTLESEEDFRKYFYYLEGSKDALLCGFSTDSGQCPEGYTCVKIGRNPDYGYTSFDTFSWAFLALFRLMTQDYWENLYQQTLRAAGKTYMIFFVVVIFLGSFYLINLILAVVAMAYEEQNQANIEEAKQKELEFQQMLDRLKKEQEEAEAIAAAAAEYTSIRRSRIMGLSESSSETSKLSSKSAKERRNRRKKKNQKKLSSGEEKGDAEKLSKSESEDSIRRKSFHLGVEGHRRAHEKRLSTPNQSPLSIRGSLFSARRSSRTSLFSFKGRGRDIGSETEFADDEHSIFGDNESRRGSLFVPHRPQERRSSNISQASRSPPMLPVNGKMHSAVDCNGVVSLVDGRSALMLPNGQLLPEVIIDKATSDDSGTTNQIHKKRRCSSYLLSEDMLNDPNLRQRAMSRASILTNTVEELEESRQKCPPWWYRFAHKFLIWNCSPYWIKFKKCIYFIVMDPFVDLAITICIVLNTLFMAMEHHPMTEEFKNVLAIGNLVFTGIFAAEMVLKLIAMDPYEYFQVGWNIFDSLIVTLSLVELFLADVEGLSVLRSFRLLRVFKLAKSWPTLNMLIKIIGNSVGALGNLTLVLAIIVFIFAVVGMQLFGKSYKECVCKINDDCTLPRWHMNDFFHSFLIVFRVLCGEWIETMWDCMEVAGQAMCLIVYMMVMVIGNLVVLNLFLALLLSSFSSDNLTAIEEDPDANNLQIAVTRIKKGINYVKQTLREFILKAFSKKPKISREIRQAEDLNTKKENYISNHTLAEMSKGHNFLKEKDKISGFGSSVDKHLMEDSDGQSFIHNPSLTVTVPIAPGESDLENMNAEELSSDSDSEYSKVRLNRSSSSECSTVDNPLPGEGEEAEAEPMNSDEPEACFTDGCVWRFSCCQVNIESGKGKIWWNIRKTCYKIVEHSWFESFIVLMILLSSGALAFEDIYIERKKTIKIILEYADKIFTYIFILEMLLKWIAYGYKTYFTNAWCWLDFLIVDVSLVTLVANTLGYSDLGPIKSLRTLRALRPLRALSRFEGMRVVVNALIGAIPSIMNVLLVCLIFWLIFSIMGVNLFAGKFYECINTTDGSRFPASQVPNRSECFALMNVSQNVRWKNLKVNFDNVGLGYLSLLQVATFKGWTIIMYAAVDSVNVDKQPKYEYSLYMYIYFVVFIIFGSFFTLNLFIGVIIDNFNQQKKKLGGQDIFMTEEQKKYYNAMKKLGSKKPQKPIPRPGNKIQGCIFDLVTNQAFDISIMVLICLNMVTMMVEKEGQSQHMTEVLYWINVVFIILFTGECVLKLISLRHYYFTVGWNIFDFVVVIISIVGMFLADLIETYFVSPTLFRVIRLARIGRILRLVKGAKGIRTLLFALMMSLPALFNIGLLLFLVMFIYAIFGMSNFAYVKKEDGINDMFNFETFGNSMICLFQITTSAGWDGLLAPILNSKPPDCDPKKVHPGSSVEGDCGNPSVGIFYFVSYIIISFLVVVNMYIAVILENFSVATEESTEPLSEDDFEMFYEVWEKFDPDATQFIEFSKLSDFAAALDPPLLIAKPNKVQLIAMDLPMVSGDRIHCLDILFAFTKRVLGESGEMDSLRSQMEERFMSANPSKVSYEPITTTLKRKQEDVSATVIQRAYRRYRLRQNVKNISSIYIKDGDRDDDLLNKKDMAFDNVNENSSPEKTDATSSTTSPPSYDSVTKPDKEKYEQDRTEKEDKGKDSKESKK
# T3 sequence (Q14524 whole entry): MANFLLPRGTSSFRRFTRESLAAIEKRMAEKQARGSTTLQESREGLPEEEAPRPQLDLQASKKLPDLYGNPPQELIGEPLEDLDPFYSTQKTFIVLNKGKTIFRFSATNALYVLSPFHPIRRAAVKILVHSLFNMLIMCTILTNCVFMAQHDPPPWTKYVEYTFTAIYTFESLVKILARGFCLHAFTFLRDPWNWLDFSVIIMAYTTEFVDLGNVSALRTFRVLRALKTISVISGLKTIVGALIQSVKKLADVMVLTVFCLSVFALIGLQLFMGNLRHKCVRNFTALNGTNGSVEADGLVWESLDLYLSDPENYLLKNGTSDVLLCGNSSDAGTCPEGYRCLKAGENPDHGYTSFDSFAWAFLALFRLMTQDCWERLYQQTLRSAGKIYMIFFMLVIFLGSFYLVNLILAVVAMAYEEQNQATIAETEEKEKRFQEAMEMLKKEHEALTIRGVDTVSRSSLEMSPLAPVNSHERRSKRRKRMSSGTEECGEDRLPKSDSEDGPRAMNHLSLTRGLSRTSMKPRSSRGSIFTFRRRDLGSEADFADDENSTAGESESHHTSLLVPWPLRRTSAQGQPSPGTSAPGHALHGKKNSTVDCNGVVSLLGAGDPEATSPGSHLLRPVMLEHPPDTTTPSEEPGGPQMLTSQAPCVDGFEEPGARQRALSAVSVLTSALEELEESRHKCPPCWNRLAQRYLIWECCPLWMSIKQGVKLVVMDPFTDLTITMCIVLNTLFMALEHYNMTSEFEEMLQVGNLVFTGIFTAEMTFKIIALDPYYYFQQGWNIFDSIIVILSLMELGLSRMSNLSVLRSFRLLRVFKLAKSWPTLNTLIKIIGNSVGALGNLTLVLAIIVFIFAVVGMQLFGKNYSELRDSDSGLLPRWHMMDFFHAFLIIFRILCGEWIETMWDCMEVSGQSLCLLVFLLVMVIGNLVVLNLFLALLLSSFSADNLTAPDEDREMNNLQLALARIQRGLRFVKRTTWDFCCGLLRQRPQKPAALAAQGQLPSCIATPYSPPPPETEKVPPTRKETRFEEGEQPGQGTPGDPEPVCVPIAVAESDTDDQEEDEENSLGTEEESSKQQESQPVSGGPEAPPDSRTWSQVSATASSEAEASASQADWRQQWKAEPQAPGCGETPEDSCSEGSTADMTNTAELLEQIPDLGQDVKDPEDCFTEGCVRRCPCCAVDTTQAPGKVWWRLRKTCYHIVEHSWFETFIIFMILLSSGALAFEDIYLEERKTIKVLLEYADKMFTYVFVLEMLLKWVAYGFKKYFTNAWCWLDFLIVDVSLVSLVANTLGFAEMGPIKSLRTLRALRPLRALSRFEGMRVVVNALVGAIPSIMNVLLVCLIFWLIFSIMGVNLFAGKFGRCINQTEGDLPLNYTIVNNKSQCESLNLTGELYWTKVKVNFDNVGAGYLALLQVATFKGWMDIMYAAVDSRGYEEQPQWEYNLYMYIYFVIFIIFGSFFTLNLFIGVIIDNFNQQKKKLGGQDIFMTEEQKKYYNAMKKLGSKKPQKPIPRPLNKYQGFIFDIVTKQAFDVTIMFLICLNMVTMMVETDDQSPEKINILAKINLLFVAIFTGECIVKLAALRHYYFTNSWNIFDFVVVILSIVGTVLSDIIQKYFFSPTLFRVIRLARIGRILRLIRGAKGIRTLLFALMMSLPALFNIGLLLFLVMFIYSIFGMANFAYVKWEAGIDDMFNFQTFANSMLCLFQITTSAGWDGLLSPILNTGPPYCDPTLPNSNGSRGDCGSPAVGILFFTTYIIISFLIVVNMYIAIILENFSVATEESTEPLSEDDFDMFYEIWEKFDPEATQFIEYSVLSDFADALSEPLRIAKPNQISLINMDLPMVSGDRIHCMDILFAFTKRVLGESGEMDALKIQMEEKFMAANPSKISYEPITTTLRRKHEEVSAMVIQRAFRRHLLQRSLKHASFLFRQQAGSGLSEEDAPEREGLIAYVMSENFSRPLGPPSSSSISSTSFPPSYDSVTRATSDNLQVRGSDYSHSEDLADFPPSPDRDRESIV
# T4 sequence (Q15858 whole entry): as the sequence (Q15858 whole entry) above
smiles,measurement,setting,value
"Cc1cc(Cn2cc3c(NC(=O)C(C)(C)O)nccc3n2)cnc1OCC(F)(F)F [Example 2, 2-hydroxy-2-methyl-N-(2-((5-methyl-6-(2,2,2-trifluoroethoxy)pyridin-3-yl)methyl)-2H-pyrazolo[4,3-c]pyridin-4-yl)propanamide]",Ki,[1],570 nM
same,IC50,"[2]; bound holds for Nav1.7 and/or Nav1.3, not stated which, read-out: IC50 against Nav1.7 and/or Nav1.3",< 1000 nM
same,IC50,[2]; read-out: activity against Nav1.7 (IC50),380 nM
same,IC50,[3],> 30000 nM
same,Ki,[4],340 nM

# Source: patent publication US9944634B2, “Pyrazolopyridine derivatives as TTX-S blockers” (RaQualia Pharma Inc., priority 2012, dated 2018)
